The pIC50 is the IC50 on a negative log10 scale, so that one unit is a factor of ten.

Among the data in patent US20220220152A1, “BIVALENT ANTAGONISTS OF INHIBITORS OF APOPTOSIS PROTEINS” (Hepagene Therapeutics (HK) Limited, priority 2019, published 2022) are IC50 values, retold here.

pIC50: −log10 of the molar value.

One experiment concerns the target T1, cIAP2-BIR3 (Homo sapiens, UniProt Q13489).
T1 construct: cIAP2-BIR3; purchased Reaction Biology APT-11-372
Briefly: cIAP2-BIR3 fluorescence polarization binding assay. To be noted: FP, probe AbuRPFK-5FAM (SM5F) 5 nM, cIAP2-BIR3 80 nM, 60 min at 25° C. The method, boiled down: (§1)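 Fluorescence polarization competition using 5-carboxyfluorescein-labelled peptide probe AbuRPFK-5FAM; protein and compound preincubated 15 min, probe added, then 60 min at 25° C.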
On the technique in general: Fluorescence polarisation rises when a labelled molecule tumbles more slowly, as on binding a larger partner.

A further experiment deals with T2, cIAP1-BIR3 (Homo sapiens, UniProt Q13490).
T2 construct: cIAP1-BIR3; purchased Reaction Biology APT-11-370
The experiment is described as follows: cIAP1-BIR3 fluorescence polarization binding assay. To be noted: FP, probe AbuRPFK-5FAM (SM5F) 5 nM, cIAP1-BIR3 15 nM, 60 min at 25° C. The method in brief:
as §1

The next experiment has as its target T3, XIAP-BIR3 (Homo sapiens, UniProt P98170).
T3 construct: XIAP-BIR3; purchased Reaction Biology APT-11-374
The experiment is described as follows: XIAP-BIR3 fluorescence polarization binding assay. To be noted: FP, probe AbuRPFK-5FAM (SM5F) 5 nM, XIAP-BIR3 40 nM, 60 min at 25° C. The method in brief: as §1

T1 sequence (Q13489 238-349 limits assumed): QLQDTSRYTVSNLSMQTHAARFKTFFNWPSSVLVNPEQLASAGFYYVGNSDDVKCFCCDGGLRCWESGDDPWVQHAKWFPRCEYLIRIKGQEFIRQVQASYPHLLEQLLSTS
T3 sequence (P98170 241-356 limits assumed): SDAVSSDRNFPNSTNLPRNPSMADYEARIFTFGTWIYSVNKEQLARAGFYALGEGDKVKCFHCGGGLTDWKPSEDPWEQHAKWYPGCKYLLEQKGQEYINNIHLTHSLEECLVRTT
T2 sequence (Q13490 253-363 limits assumed): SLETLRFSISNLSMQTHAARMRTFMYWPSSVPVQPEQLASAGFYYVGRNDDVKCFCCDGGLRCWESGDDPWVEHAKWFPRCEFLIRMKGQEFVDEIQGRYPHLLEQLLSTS

`CN[C@@H](C)C(=O)N[C@H](C(=O)N1CCC[C@H]1C(=O)N[C@@H]1CCCc2c(OCCN3CCN(CCOc4cccc5c4CCC[C@H]5NC(=O)[C@@H]4CCCN4C(=O)[C@@H](NC(=O)[C@H](C)NC)C4CCCCC4)CC3)cccc21)C1CCCCC1` [Compound IX, (2S)-1-[(2S)-2-cyclohexyl-2-[(2S)-2-(methylamino)propanamido]acetyl]-N-[(1R)-5-{2-[4-(2-{[(5R)-5-[(2S)-1-[(2S)-2-cyclohexyl-2-[(2S)-2-(methylamino)propanamido]acetyl]pyrolidine-2-amido]-5,6,7,8-tetrahydronaphthalen-1-yl]oxy}ethyl)piperazin-1-yl]ethoxy}-1,2,3,4-tetrahydmnaphthalen-1-yl]pyrrolidine-2-carboxamide]: the pIC50 at cIAP2-BIR3 is 7.00 to 8.00; on cIAP1-BIR3, 8.00 to 9.00; at XIAP-BIR3 it was 6.00 to 7.00.

As to `CN[C@@H](C)C(=O)N[C@H](C(=O)N1CCC[C@H]1C(=O)N[C@@H]1CCc2c(-c3cccc4c3CC[C@H]4NC(=O)[C@@H]3CCCN3C(=O)[C@@H](NC(=O)[C@H](C)NC)C3CCCCC3)cccc21)C1CCCCC1` [Compound V, (2S)-1-[(2S)-2-cyclohexyl-2-[(2S)-2-(methylamino)propanamido]acetyl]-N-[(1R,1′R)-1′-[(2S)-1-[(2S)-2-cyclohexyl-2-[(2S)-2-(methylamino)propanamido]acetyl]pyrrolidine-2-amido]-1H,1′H,2H,2′H,3H,3′H-[4,4′-biinden]-1-yl]pyrrolidine-2-carboxamide], the negative-log IC50 (pIC50) on cIAP2-BIR3 was 7.00 to 8.00; on cIAP1-BIR3, 8.00 to 9.00; at XIAP-BIR3 it was 7.00 to 8.00.

For the molecule `CN[C@@H](C)C(=O)N[C@@H](C)C(=O)N1CCC[C@H]1C(=O)N[C@@H]1CCOc2c(-c3cccc4c3OCC[C@H]4NC(=O)[C@@H]3CCCN3C(=O)[C@H](C)NC(=O)[C@H](C)NC)cccc21` [Compound V-A, (2S)-1-[(2S)-2-[(2S)-2-(methylamino)propanamido]propanoyl]-N-[(4R)-8-[(4R)-4-[(2S)-1-[(2S)-2-[(2S)-2-(methylamino)propanamido]propanoyl]pyrrolidine-2-amido]-3,4-dihydro-2H-1-benzopyran-8-yl]-3,4-dihydro-2H-1-benzopyran-4-yl]pyrrolidine-2-carboxamide], the pIC50 on cIAP2-BIR3 was 7.00 to 8.00; at cIAP1-BIR3, 8.00 to 9.00; on XIAP-BIR3, 6.00 to 7.00.

For `CC[C@H](NC(=O)[C@H](C)NC)C(=O)N1CCC[C@H]1C(=O)N[C@@H]1CCOc2c(-c3cccc4c3OCC[C@H]4NC(=O)[C@@H]3CCCN3C(=O)[C@H](CC)NC(=O)[C@H](C)NC)cccc21` [Compound V-B, (2S)-1-[(2S)-2-[(2S)-2-(methylamino)propanamido]butanoyl]-N-[1(4R)-8-[(4R)-4-[(2S)-1-[(2S)-2-[(2S)-2-(methylamino)propanamido]butanoyl]pyrrolidine-2-amido]-3,4-dihydro-2H-1-benzopyran-8-yl]-3,4-dihydro-2H-1-benzopyran-4-yl]pyrrolidine-2-carboxamide], the pIC50 was 7.00 to 8.00 at cIAP2-BIR3, 8.00 to 9.00 on cIAP1-BIR3 and 7.00 to 8.00 on XIAP-BIR3.

As for `CN[C@@H](C)C(=O)N[C@H](C(=O)N1CCC[C@H]1C(=O)N[C@@H]1CCOc2c(-c3cccc4c3OCC[C@H]4NC(=O)[C@@H]3CCCN3C(=O)[C@@H](NC(=O)[C@H](C)NC)C(C)C)cccc21)C(C)C` [Compound V-C, (2S)-1-[(2S)-3-methyl-2-[(2S)-2-(methylamino)propanamido]butanoyl]-N-[(4R)-8-[(4R)-4-[(2S)-1-[(2S)-3-methyl-2-[(2S)-2-(methylamino)propanamido]butanoyl]pyrrolidine-2-amido]-3,4-dihydro-2H-1-benzopyran-8-yl]-3,4-dihydro-2H-1-benzopyran-4-yl]pyrrolidine-2-carboxamide], the results for the pIC50 at cIAP2-BIR3, on cIAP1-BIR3 and at XIAP-BIR3 were 7.00 to 8.00, 8.00 to 9.00 and 7.00 to 8.00, respectively.

With `CN[C@@H](C)C(=O)N[C@H](C(=O)N1CCC[C@H]1C(=O)N[C@@H]1CCOc2c(-c3cccc4c3OCC[C@H]4NC(=O)[C@@H]3CCCN3C(=O)[C@@H](NC(=O)[C@H](C)NC)C(C)(C)C)cccc21)C(C)(C)C` [Compound V-D, (2S)-1-[(2S)-3,3-dimethyl-2-[(2S)-2-(methylamino)propanamido]butanoyl]-N-[(4R)-8-[(4R)-4-[(2S)-1-(2S)-3,3-dimethyl-2-[(2S)-2-(methylamino)propanamido]butanoyl]pyrrolidine-2-amido]-3,4-dihydro-2H-1-benzopyran-8-yl-3,4-dihydro-2H-1-benzopyran-4-yl]pyrrolidine-2-carboxamide], the pIC50 at cIAP2-BIR3 was 7.00 to 8.00; at cIAP1-BIR3, 8.00 to 9.00; at XIAP-BIR3, 7.00 to 8.00.

Turning to `CN[C@@H](C)C(=O)N[C@H](C(=O)N1CCC[C@H]1C(=O)N[C@@H]1CCOc2c(-c3cccc4c3OCC[C@H]4NC(=O)[C@@H]3CCCN3C(=O)[C@@H](NC(=O)[C@H](C)NC)C3CC3)cccc21)C1CC1` [Compound V-E, (2S)-1-[(2S)-2-cyclopropyl-2-[(2S)-2-(methylamino)propanamido]acetyl]-N-[(4R)8-[(4R)-4-[(2S)-1-[(2S)-2-cyclopropyl-2-[(2S)-2-(methylamino)propanamido]acetyl]pyrrolidine-2-amido]-3,4-dihydro-2H-1-benzopyran-8-yl]-3,4-dihydro-2H-1-benzopyran-4-yl]pyrrolidine-2-carboxamide], the results for the pIC50 at cIAP2-BIR3, at cIAP1-BIR3 and at XIAP-BIR3 were 7.00 to 8.00, 8.00 to 9.00 and 7.00 to 8.00, respectively.

As for `CN[C@@H](C)C(=O)N[C@H](C(=O)N1CCC[C@H]1C(=O)N[C@@H]1CCOc2c(-c3cccc4c3OCC[C@H]4NC(=O)[C@@H]3CCCN3C(=O)[C@@H](NC(=O)[C@H](C)NC)C3CCCC3)cccc21)C1CCCC1` [Compound V-F, (2S)-1-[(2S)-2-cyclopentyl-2-[(2S)-2-(methylamino)propanamido]acetyl]-N-[(4R)-8-[(4R)-4-[(2S)-1-[(2S)-2-cyclopentyl-2-[(2S)-2-(methylamino)propanamido]acetyl]pyrrolidine-2-amido]-3,4-dihydro-2H-1-benzopyran-8-yl]-3,4-dihydro-2H-1-benzopyran-4-yl]pyrrolidine-2-carboxamide], the negative logarithm of the IC50 (pIC50) on cIAP2-BIR3 is 7.00 to 8.00; at cIAP1-BIR3, 8.00 to 9.00; at XIAP-BIR3, 7.00 to 8.00.

As for `CN[C@@H](C)C(=O)N[C@H](C(=O)N1CCC[C@H]1C(=O)N[C@@H]1CCc2c(-c3cccc4c3CC[C@H]4NC(=O)[C@@H]3CCCN3C(=O)[C@@H](NC(=O)[C@H](C)NC)C(C)C)cccc21)C(C)C` [Compound V-G, (2S)-1-[(2S)-3-methyl-2-[(2S)-2-(methylamino)propanamido]butanoyl]-N-[(1R,1′R)-1′-[(2S)-1-[(2S)-3-methyl-2-[(2S)-2-(methylamino)propanamido]butanoyl]pyrrolidine-2-amido]-1H,1′H,2H,2′H,3H,3′H-[4,4′-biinden]-1-yl]pyrrolidine-2-carboxamide], the values for the pIC50 at cIAP2-BIR3, on cIAP1-BIR3 and on XIAP-BIR3 were 7.00 to 8.00, 8.00 to 9.00 and 7.00 to 8.00, respectively.
